These results are taken from ChEMBL document CHEMBL4610120, “New Broad-Spectrum Antibiotics Containing a Pyrrolobenzodiazepine Ring with Activity against Multidrug-Resistant Gram-Negative Bacteria” (J Med Chem, 2020).

In data set [1] the test system is DNA. The experiment in a line: Stabilization of 5'-FAM-TAT-AGA-TAT-AGA-TAT-TTT-ATA-TCT-ATA-TCT-ATA-3'-TAMRA DNA (unknown origin) assessed as reduction in change in melting temperature at 1:1 to 5:1 ligand to DNA ratio measured after 3 hrs by FRET-based assay relative to control. The data set is classed as ADME, nucleic-acid assay.
Data set [2] can be described thus: Selectivity ratio of cytotoxicity against human WI38 cells to MIC for Acinetobacter baumannii ATCC 17978. Type of data set: toxicity, cell-based.
Data set [3] relates to Acinetobacter baumannii. The data set can be described thus: Antimicrobial activity against multidrug-resistant Acinetobacter baumannii AYE by microdilution broth method. Type of data set: functional.
The subject of data set [4] is DNA. The data set can be described thus: Stabilization of 5'-FAM-TAT-ATA-TAG-ATA-TTT-TTT-TAT-CTA-TAT-ATA-3'-TAMRA DNA (unknown origin) assessed as reduction in change in melting temperature at 1:1 to 5:1 ligand to DNA ratio measured after 3 hrs by FRET-based assay relative to control. Type of data set: ADME, nucleic-acid assay.
Data set [5] is described as follows: Selectivity ratio of cytotoxicity against human WI38 cells to MIC for Klebsiella pneumoniae M6. Type of data set: toxicity, cell-based.
The nature of data set [6]: Selectivity ratio of cytotoxicity against human WI38 cells to MIC for methicillin sensitive Staphylococcus aureus NCTC 6571. The data set is classed as toxicity, cell-based.
Data set [7] deals with Klebsiella pneumoniae. The experiment in a line: Antimicrobial activity against Klebsiella pneumoniae M6 by microdilution broth method. Type of data set: functional.
In data set [8] the test system is Klebsiella pneumoniae. The experiment in a line: Antimicrobial activity against multidrug-resistant Klebsiella pneumoniae NCTC 13368 by microdilution broth method. Type of data set: functional. (Dilution methods test growth across graded concentrations, often in twofold steps.)
A short description of data set [9]: Selectivity ratio of cytotoxicity against human WI38 cells to MIC for vancomycin sensitive Enterococcus faecalis NCTC 775. Type of data set: toxicity, cell-based.
Data set [10] is described as follows: Selectivity ratio of cytotoxicity against human WI38 cells to MIC for multidrug-resistant Klebsiella pneumoniae NCTC 13368. Type of data set: toxicity, cell-based.
Data set [11] can be described thus: Selectivity ratio of cytotoxicity against human WI38 cells to MIC for methicillin resistant Staphylococcus aureus NCTC 13616. The data set is classed as toxicity, cell-based.
Data set [12] has as its system Staphylococcus aureus. The experiment in a line: Antibacterial activity against methicillin resistant Staphylococcus aureus NCTC 13277 by microdilution broth method. Type of data set: functional.
Data set [13] can be described thus: Selectivity ratio of cytotoxicity against human WI38 cells to MIC for vancomycin resistant Enterococcus faecalis NCTC 12201. Type of data set: toxicity, cell-based.
Data set [14] in a line: Selectivity ratio of cytotoxicity against human WI38 cells to MIC for Pseudomonas aeruginosa PAO1. The data set is classed as toxicity, cell-based.
The test system of data set [15] is Pseudomonas aeruginosa. The experiment in a line: Antimicrobial activity against multidrug-resistant Pseudomonas aeruginosa NCTC 13437 by microdilution broth method. Type of data set: functional.
Data set [16] deals with Enterococcus faecalis. The experiment in a line: Antibacterial activity against vancomycin resistant Enterococcus faecalis NCTC 12201 by microdilution broth method. Type of data set: functional.
For the next data set, the system named is Enterococcus faecium. The data set can be described thus: Antibacterial activity against vancomycin resistant Enterococcus faecium NCTC 12204 by microdilution broth method. Type of data set: functional.
The nature of data set [17]: Cytotoxicity against human WI38 cells assessed as cell viability at 20 uM measured after 24 hrs by MTT assay relative to control. Type of data set: cell-based, WI-38. To be noted: read-out: Activity. In general terms: Formazan colour is commonly taken as a measure of viable cells.
The test system of data set [18] is Acinetobacter baumannii. The experiment in a line: Antimicrobial activity against Acinetobacter baumannii ATCC 17978 by microdilution broth method. Type of data set: functional.
Data set [19] in a line: Selectivity ratio of cytotoxicity against human WI38 cells to MIC for multidrug-resistant Acinetobacter baumannii AYE. Type of data set: toxicity, cell-based.
In data set [20] the test system is Enterococcus faecalis. The experiment in a line: Antibacterial activity against vancomycin sensitive Enterococcus faecalis NCTC 775 by microdilution broth method. Type of data set: functional.
Data set [21] has as its system Staphylococcus aureus. The data set can be described thus: Antibacterial activity against methicillin sensitive Staphylococcus aureus NCTC 6571 by microdilution broth method. The data set is classed as functional.
In data set [22] the test system is Pseudomonas aeruginosa. The data set can be described thus: Antimicrobial activity against Pseudomonas aeruginosa PAO1 by microdilution broth method. Type of data set: functional.
The test system of data set [23] is Staphylococcus aureus. The data set can be described thus: Antibacterial activity against methicillin resistant Staphylococcus aureus NCTC 13616 by microdilution broth method. The data set is classed as functional.
Data set [24] is described as follows: Selectivity ratio of cytotoxicity against human WI38 cells to MIC for multidrug-resistant Pseudomonas aeruginosa NCTC 13437. Type of data set: toxicity, cell-based.
Data set [25] in a line: Selectivity ratio of cytotoxicity against human WI38 cells to MIC for methicillin resistant Staphylococcus aureus NCTC 13277. The data set is classed as toxicity, cell-based.
The nature of data set [26]: Selectivity ratio of cytotoxicity against human WI38 cells to MIC for vancomycin resistant Enterococcus faecium NCTC 12204. Type of data set: toxicity, cell-based.
Data set [27] has as its system Klebsiella pneumoniae. The experiment in a line: Antibacterial activity against multidrug-resistant Klebsiella pneumoniae NCTC 13368 measured after 10 passages by microdilution broth method. The data set is classed as functional.

Converted amounts (≈) assume the structure as drawn.

Regarding `CCN(CC)C(=O)c1cc2cc(NC(=O)c3cc(NC(=O)CCCOc4cc5c(cc4OC)C(=O)N4CCC[C@H]4C=N5)cn3C)ccc2o1`, the fold change (FC) in the data set on DNA [1] and in the data set with DNA [4] was 3 to 4 in each case. The selectivity ratio in data set [2] came out at 10; in data set [5], 10; in data set [6], 100; in data set [9], 100; in [10] it was 10; in data set [11], 100. Besides, the selectivity ratio in data set [13] stood at 100; in [14] it was 10; in [19] it was 10; in [24], 10; in [25], 100; in [26], 100. Moreover, the MIC is 4 µg/mL (≈ 5.98 µM) with Acinetobacter baumannii [3]; 8 µg/mL (≈ 12 µM) in the data set on Klebsiella pneumoniae [7]; 64 µg/mL (≈ 95.7 µM) against Klebsiella pneumoniae [8]; 0.5 µg/mL (≈ 0.748 µM) against Staphylococcus aureus [12]; 32 µg/mL (≈ 47.9 µM) in the data set on Pseudomonas aeruginosa [15]; no more than 0.125 µg/mL against Enterococcus faecalis [16]. Also, the MIC in the data set on Enterococcus faecium was no more than 0.125 µg/mL; with Acinetobacter baumannii [18] it was 4 µg/mL (≈ 5.98 µM); against Enterococcus faecalis [20], 0.25 µg/mL (≈ 0.374 µM); against Staphylococcus aureus [21], no more than 0.125 µg/mL; against Pseudomonas aeruginosa [22], 128 µg/mL (≈ 191 µM); with Staphylococcus aureus [23], 0.25 µg/mL (≈ 0.374 µM). The viability at 24 h, 20 µM in data set [17] was greater than 85%.
Take `COc1cc2c(cc1OCCCC(=O)Nc1cc(C(=O)Nc3ccc(-c4cc(C(=O)N(C)C)n(C)c4)cc3)n(C)c1)N=C[C@@H]1CCCN1C2=O`: the fold change (FC) with DNA [1] and in the data set on DNA [4] was 3 to 4 in each case. The selectivity ratio in [2] is 10; in data set [5], 10; in data set [6], 100; in data set [9] it was 100; in [10], 10; in data set [11], 100. Further, the selectivity ratio in data set [13] turned out to be 100; in data set [14] it was 10; in data set [19] it was 10; in [24] it was 10; in data set [25], 100; in [26] it was 100. Also, the MIC against Acinetobacter baumannii [3] is 4 µg/mL (≈ 5.88 µM); against Klebsiella pneumoniae [7] it was 2 µg/mL (≈ 2.94 µM); in the data set on Klebsiella pneumoniae [8] it was 8 µg/mL (≈ 11.8 µM); in the data set on Staphylococcus aureus [12], no more than 0.125 µg/mL; against Pseudomonas aeruginosa [15] it was greater than 128 µg/mL; against Enterococcus faecalis [16], no more than 0.125 µg/mL. The MIC is no more than 0.125 µg/mL with Enterococcus faecium; 4 µg/mL (≈ 5.88 µM) with Acinetobacter baumannii [18]; no more than 0.125 µg/mL against Enterococcus faecalis [20]; no more than 0.125 µg/mL in the data set with Staphylococcus aureus [21]; 128 µg/mL (≈ 188 µM) in the data set on Pseudomonas aeruginosa [22]; no more than 0.125 µg/mL in the data set with Staphylococcus aureus [23]. The viability at 24 h, 20 µM in data set [17] is greater than 85%.
Regarding `COc1cc2c(cc1OCCCC(=O)Nc1cc(C(=O)Nc3ccc4oc(C(=O)N(C)C)cc4c3)n(C)c1)N=C[C@@H]1CCCN1C2=O`, the fold change (FC) with DNA [1] and in the data set on DNA [4] was 3 to 4 each time. Further, the selectivity ratio came to 10 in data set [2]; 10 in [5]; 100 in [6]; 100 in [9]; 10 in data set [10]; 100 in data set [11]. Further, the selectivity ratio in data set [13] is 100; in data set [14], 10; in [19] it was 10; in data set [24], 10; in data set [25], 100; in data set [26] it was 100. In addition, the MIC was 4 µg/mL (≈ 6.24 µM) in the data set with Acinetobacter baumannii [3]; 0.5 µg/mL (≈ 0.78 µM) in the data set with Klebsiella pneumoniae [7]; 16 µg/mL (≈ 25 µM) with Klebsiella pneumoniae [8]; no more than 0.125 µg/mL against Staphylococcus aureus [12]; 64 µg/mL (≈ 99.9 µM) against Pseudomonas aeruginosa [15]; 0.5 µg/mL (≈ 0.78 µM) against Enterococcus faecalis [16]. The minimal inhibitory concentration (MIC) in the data set with Enterococcus faecium is no more than 0.125 µg/mL; in the data set with Acinetobacter baumannii [18] it was 4 µg/mL (≈ 6.24 µM); in the data set on Enterococcus faecalis [20], no more than 0.125 µg/mL; in the data set with Staphylococcus aureus [21], no more than 0.125 µg/mL; against Pseudomonas aeruginosa [22], 128 µg/mL (≈ 200 µM); in the data set with Staphylococcus aureus [23], no more than 0.125 µg/mL. In data set [17], the viability at 24 h, 20 µM is greater than 85%.
In the data set on Klebsiella pneumoniae [27], COLISTIN had an MIC of 32 µg/mL.
As to `CCN(CC)C(=O)c1cc(-c2ccc(NC(=O)c3cc(NC(=O)CCCOc4cc5c(cc4OC)C(=O)N4CCC[C@H]4C=N5)cn3C)cc2)cn1C`, the fold change (FC) in the data set with DNA [1] and with DNA [4] was 3 to 4 in each case. The selectivity ratio in data set [2] was found to be 10; in data set [5], 10; in [6], 100; in data set [9] it was 100; in data set [10], 10; in [11], 100. Also, the selectivity ratio amounted to 100 in [13]; 10 in [14]; 10 in [19]; 10 in data set [24]; 100 in [25]; 100 in data set [26]. Besides, the MIC was 32 µg/mL (≈ 45.2 µM) in the data set with Acinetobacter baumannii [3]; greater than 128 µg/mL against Klebsiella pneumoniae [7]; greater than 128 µg/mL in the data set with Klebsiella pneumoniae [8]; 1 µg/mL (≈ 1.41 µM) against Staphylococcus aureus [12]; greater than 128 µg/mL with Pseudomonas aeruginosa [15]; 0.25 to 0.5 µg/mL (≈ 0.353 to 0.706 µM) against Enterococcus faecalis [16]. Further, the MIC against Enterococcus faecium was 0.25 µg/mL (≈ 0.353 µM); against Acinetobacter baumannii [18], 64 µg/mL (≈ 90.4 µM); in the data set with Enterococcus faecalis [20] it was 0.5 µg/mL (≈ 0.706 µM); against Staphylococcus aureus [21], 0.25 to 0.5 µg/mL (≈ 0.353 to 0.706 µM); in the data set with Pseudomonas aeruginosa [22], greater than 128 µg/mL; with Staphylococcus aureus [23], 1 µg/mL (≈ 1.41 µM). Also, the viability at 24 h, 20 µM in data set [17] is greater than 85%.
`COc1cc2c(cc1OCCCC(=O)Nc1cc(C(=O)Nc3ccc(-c4cc(C(=O)N5CCOCC5)n(C)c4)cc3)n(C)c1)N=C[C@@H]1CCCN1C2=O`: the fold change (FC) in the data set on DNA [1] and in the data set on DNA [4] was 3 to 4 each time. Moreover, the selectivity ratio in data set [2] amounted to 10; in data set [5], 10; in data set [6], 100; in data set [9], 100; in [10], 10; in data set [11], 100. Also, the selectivity ratio in [13] was 100; in data set [14], 10; in data set [19], 10; in [24], 10; in [25] it was 100; in data set [26] it was 100. The MIC against Acinetobacter baumannii [3] was 2 µg/mL (≈ 2.77 µM); with Klebsiella pneumoniae [7] it was 2 µg/mL (≈ 2.77 µM); against Klebsiella pneumoniae [8], 32 µg/mL (≈ 44.3 µM); against Staphylococcus aureus [12], no more than 0.125 µg/mL; with Pseudomonas aeruginosa [15], greater than 128 µg/mL; against Enterococcus faecalis [16], no more than 0.125 µg/mL. Further, the minimum inhibitory concentration (MIC) is no more than 0.125 µg/mL in the data set with Enterococcus faecium; 4 µg/mL (≈ 5.54 µM) against Acinetobacter baumannii [18]; no more than 0.125 µg/mL with Enterococcus faecalis [20]; no more than 0.125 µg/mL with Staphylococcus aureus [21]; greater than 128 µg/mL in the data set on Pseudomonas aeruginosa [22]; no more than 0.125 µg/mL in the data set on Staphylococcus aureus [23]. In addition, in data set [17], the viability at 24 h, 20 µM was greater than 85%.

One may read the MIC as the smallest concentration in the dilution series that meets the test's criterion for growth inhibition. High values mean weaker potency, low ones greater potency.
